Test [1] has as its system Hsp90. Nature of the test: Western blot of PBMC lysates: Hsp90 levels. The class given is in vivo, human. The following applies: after tanespimycin therapy (on sorafenib). (In general: A western blot detects proteins with antibodies after separation by electrophoresis.)
The subject of test [2] is Hsp70. Nature of the test: Western blot of PBMC lysates: Hsp70 levels. The class given is in vivo, human.
Test [3] deals with kidney cancer. To be noted: no prior VEGF inhibitor therapy, single agent; cited from earlier work.

The values below come from article PMC2909581 (Clinical cancer research : an official journal of the …, 2010).

In the case of `C=CCNC1=C2C[C@@H](C)C[C@H](OC)[C@H](O)[C@@H](C)/C=C(\C)[C@H](OC(N)=O)[C@@H](OC)/C=C\C=C(/C)C(=O)NC(=CC1=O)C2=O` [tanespimycin, 17-demethoxy-allylaminogeldanamycin], the “patient samples with decrease in Hsp90 levels” value in test [1] was 6 of the 14. For the same compound, the “patients with increase in Hsp70 level among those showing clinical benefit” value in test [2] (after tanespimycin therapy) is 8 of the 10. The “samples with Hsp70 induction” value in test [2] (after treatment with tanespimycin (on sorafenib)) is listed as 11 of 14. For the same compound, the “response in phase II trial” value in test [3] was “no objective responses”.
